# Source: ChEMBL document CHEMBL5390204, “Persephacin Is a Broad-Spectrum Antifungal Aureobasidin Metabolite That Overcomes Intrinsic Resistance in Aspergillus fumigatus” (J Nat Prod, 2023)
# Assays:
# Assay type in all cases: functional
# [1] = test system: Candida parapsilosis; test: Antifungal activity against Candida parapsilosis 15 assessed as inhibition in fungal growth incubated for 48 hrs by microplate reader analysis; conditions: Lodderomyces parapsilosis
# [2] = test system: Nakaseomyces glabratus; test: Antifungal activity against Candida glabrata 4 assessed as inhibition in fungal growth incubated for 48 hrs by microplate reader analysis
# [3] = test system: Clavispora lusitaniae; test: Antifungal activity against multidrug-resistant Candida lusitaniae 398 assessed as inhibition in fungal growth incubated for 48 hrs by microplate reader analysis
# [4] = test system: Aspergillus niger; test: Antifungal activity against Aspergillus niger FGSC A732 assessed as reduction in fungal growth incubated for 48 hrs by microplate reader analysis
# [5] = test system: [Candida] auris; test: Antifungal activity against multidrug-resistant Candida auris 383 assessed as inhibition in fungal growth incubated for 48 hrs by microplate reader analysis; conditions: Candidozyma auris
# [6] = test system: Rhizopus arrhizus; test: Antifungal activity against Rhizopus oryzae FGSC 9543 assessed as reduction in fungal viability incubated for 48 hrs by microplate reader analysis
# [7] = test system: [Candida] auris; test: Antifungal activity against multidrug-resistant Candida auris 381 assessed as inhibition in fungal growth incubated for 48 hrs in presence of 0% serum by microplate reader analysis; conditions: Candidozyma auris
# [8] = test system: Candida albicans; test: Antifungal activity against Candida albicans 10 assessed as inhibition in fungal growth incubated for 48 hrs by microplate reader analysis
# [9] = test system: Candida albicans; test: Antifungal activity against Candida albicans SC5314 assessed as inhibition in fungal growth incubated for 48 hrs in presence of 5% serum by microplate reader analysis
# [10] = test system: Pichia kudriavzevii; test: Antifungal activity against Candida krusei ATCC 6258 (Y-7179) assessed as reduction in fungal growth incubated for 48 hrs by microplate reader analysis
# [11] = test system: Nakaseomyces glabratus; test: Antifungal activity against Candida glabrata 2 assessed as inhibition in fungal growth incubated for 48 hrs by microplate reader analysis
# [12] = test system: [Candida] auris; test: Antifungal activity against multidrug-resistant Candida auris 381 assessed as inhibition in fungal growth incubated for 48 hrs in presence of 5% serum by microplate reader analysis; conditions: Candidozyma auris
# [13] = test system: Candida albicans; test: Antifungal activity against Candida albicans 21 assessed as inhibition in fungal growth incubated for 48 hrs by microplate reader analysis
# [14] = test system: Candida albicans; test: Antifungal activity against Candida albicans SC5314 assessed as reduction in fungal growth incubated for 48 hrs by microplate reader analysis
# [15] = test system: Candida albicans; test: Antifungal activity against Candida albicans SC5314 assessed as inhibition in fungal growth incubated for 48 hrs in presence of 0% serum by microplate reader analysis
# [16] = test system: Candida albicans; test: Antifungal activity against Candida albicans 8 assessed as inhibition in fungal growth incubated for 48 hrs by microplate reader analysis
# [17] = test system: [Candida] auris; test: Antifungal activity against multidrug-resistant Candida auris 385 assessed as inhibition in fungal growth incubated for 48 hrs by microplate reader analysis; conditions: Candidozyma auris
# [18] = test system: Candida parapsilosis; test: Antifungal activity against Candida parapsilosis 18 assessed as inhibition in fungal growth incubated for 48 hrs by microplate reader analysis; conditions: Lodderomyces parapsilosis
# [19] = test system: Candida albicans; test: Antifungal activity against Candida albicans 14 assessed as inhibition in fungal growth incubated for 48 hrs by microplate reader analysis
# [20] = test system: Nakaseomyces glabratus; test: Antifungal activity against Candida glabrata 17 assessed as inhibition in fungal growth incubated for 48 hrs by microplate reader analysis
# [21] = test system: Curvularia lunata; test: Antifungal activity against Curvularia lunata NRRL6409 assessed as reduction in fungal growth incubated for 48 hrs by microplate reader analysis
# [22] = test system: Candida tropicalis; test: Antifungal activity against Candida tropicalis ATCC750 (Y-12699) assessed as reduction in fungal growth incubated for 48 hrs by microplate reader analysis
# [23] = test system: [Candida] auris; test: Antifungal activity against multidrug-resistant Candida auris 387 assessed as inhibition in fungal growth incubated for 48 hrs by microplate reader analysis; conditions: Candidozyma auris
# [24] = test system: Mucor circinelloides; test: Antifungal activity against Mucor circinelloides 235C7 assessed as reduction in fungal growth incubated for 48 hrs by microplate reader analysis
# [25] = test system: Candida tropicalis; test: Antifungal activity against Candida tropicalis 13 assessed as inhibition in fungal growth incubated for 48 hrs by microplate reader analysis
# [26] = test system: Aspergillus fumigatus; test: Antifungal activity against Aspergillus fumigatus MYA 3627 assessed as reduction in fungal growth incubated for 48 hrs by microplate reader analysis
# [27] = test system: Candida parapsilosis; test: Antifungal activity against Candida parapsilosis 23 assessed as inhibition in fungal growth incubated for 48 hrs by microplate reader analysis; conditions: Lodderomyces parapsilosis
# [28] = test system: Fusarium solani; test: Antifungal activity against Fusarium solani 243G2 assessed as reduction in fungal growth incubated for 48 hrs by microplate reader analysis
# [29] = test system: Aspergillus terreus; test: Antifungal activity against Aspergillus terreus 191A6 assessed as reduction in fungal growth incubated for 48 hrs by microplate reader analysis
# [30] = test system: Rhizopus arrhizus; test: Antifungal activity against Rhizopus oryzae FGSC 9543 assessed as reduction in fungal growth incubated for 48 hrs by microplate reader analysis
# [31] = test system: Aspergillus fumigatus; test: Antifungal activity against Aspergillus fumigatus ATCC MYA-3627 assessed as inhibition in fungal growth incubated for 48 hrs in presence of 0% serum by microplate reader analysis
# [32] = test system: Cryptococcus neoformans; test: Antifungal activity against Cryptococcus neoformans H99 assessed as inhibition in fungal growth incubated for 48 hrs in presence of 5% serum by microplate reader analysis
# [33] = test system: Candida albicans; test: Antifungal activity against Candida albicans 5 assessed as inhibition in fungal growth incubated for 48 hrs by microplate reader analysis
# [34] = test system: Nakaseomyces glabratus; test: Antifungal activity against Candida glabrata 11 assessed as inhibition in fungal growth incubated for 48 hrs by microplate reader analysis
# [35] = test system: Curvularia lunata; test: Antifungal activity against Curvularia lunata NRRL6409 assessed as reduction in fungal viability incubated for 48 hrs by microplate reader analysis
# [36] = test system: Candida albicans; test: Antifungal activity against Candida albicans 1 assessed as inhibition in fungal growth incubated for 48 hrs by microplate reader analysis
# [37] = test system: Aspergillus niger; test: Antifungal activity against Aspergillus niger FGSC A732 assessed as reduction in fungal viability incubated for 48 hrs by microplate reader analysis
# [38] = test system: Kodamaea ohmeri; test: Antifungal activity against multidrug-resistant Kodamaea ohmeri 396 assessed as inhibition in fungal growth incubated for 48 hrs by microplate reader analysis
# [39] = test system: Aspergillus terreus; test: Antifungal activity against Aspergillus terreus 191A6 assessed as reduction in fungal viability incubated for 48 hrs by microplate reader analysis
# [40] = test system: Pichia kudriavzevii; test: Antifungal activity against Candida krusei 25 assessed as inhibition in fungal growth incubated for 48 hrs by microplate reader analysis
# [41] = test system: Candida duobushaemulonii; test: Antifungal activity against multidrug-resistant Candida duobushaemulonii 392 assessed as inhibition in fungal growth incubated for 48 hrs by microplate reader analysis; conditions: Candidozyma duobushaemuli
# [42] = test system: Mucor circinelloides; test: Antifungal activity against Mucor circinelloides 235C7 assessed as reduction in fungal viability incubated for 48 hrs by microplate reader analysis
# [43] = test system: Fusarium solani; test: Antifungal activity against Fusarium solani 243G2 assessed as reduction in fungal viability incubated for 48 hrs by microplate reader analysis
# [44] = test system: Saccharomyces cerevisiae; test: Antifungal activity against multidrug-resistant Saccharomyces cerevisiae 400 assessed as inhibition in fungal growth incubated for 48 hrs by microplate reader analysis
smiles,measurement,setting,value
CC[C@H](C)C[C@H](C)C[C@H](C)C[C@@H]1NC(=O)[C@H](C(C)C)N(C)C(=O)[C@@H]([C@H](C)CC)OC(=O)[C@H](C(C)(C)O)N(C)C(=O)[C@H](CC(C)C)NC(=O)[C@H](C(C)C)N(C)C(=O)[C@H]([C@H](C)CC)NC(=O)[C@@H]2CCCN2C(=O)CN(C)C1=O,MIC80,[1],2.5 µM
same,MIC80,[2],1.3 µM
same,MIC80,[3],2.5 µM
same,MFC,[4],> 10 µM
same,MIC80,[4],1.3 µM
same,MIC80,[5],2.5 µM
same,MFC<=99.9,[6],>10 µM
same,MIC80,[7],1.3 µM
same,MIC80,[8],2.5 µM
same,MIC80,[9],0.2 µM
same,MFC,[10],2.5 µM
same,MIC80,[10],1.3 µM
same,MIC80,[11],0.2 µM
same,MIC80,[12],1.3 µM
same,MIC80,[13],1.3 µM
same,MFC,[14],1.3 µM
same,MIC80,[14],0.3 µM
same,MIC80,[15],0.6 µM
same,MIC80,[16],0.6 µM
same,MIC80,[17],2.5 µM
same,MIC80,[18],1.3 µM
same,MIC80,[19],0.6 µM
same,MIC80,[20],0.2 µM
same,MFC,[21],0.6 µM
same,MIC80,[21],0.3 µM
same,MFC,[22],2.5 µM
same,MIC80,[22],1.3 µM
same,MIC80,[23],2.5 µM
same,MFC,[24],> 10 µM
same,MIC80,[24],> 10 µM
same,MIC80,[25],0.6 µM
same,MFC,[26],5 µM
same,MIC80,[26],2.5 µM
same,MIC80,[27],2.5 µM
same,MFC,[28],2.5 µM
same,MIC80,[28],1.3 µM
same,MFC,[29],> 10 µM
same,MIC80,[29],2.5 µM
same,MFC,[30],> 10 µM
same,MIC80,[30],> 10 µM
same,MIC80,[31],2.5 µM
same,MIC80,[32],< 0.2 µM
same,MIC80,[33],1.3 µM
same,MIC80,[34],0.6 µM
same,MFC<=99.9,[35],0.6 µM
same,MIC80,[36],2.5 µM
same,MFC<=99.9,[37],>10 µM
same,MIC80,[38],2.5 µM
same,MFC<=99.9,[39],>10 µM
same,MIC80,[40],1.3 µM
same,MIC80,[41],2.5 µM
same,MFC<=99.9,[42],>10 µM
same,MFC<=99.9,[43],2.5 µM
same,MIC80,[44],2.5 µM
